From patent publication US20200390850A1, “PEPTIDES AND USES THEREOF” (LATERAL IP PTY LTD, priority 2018, published 2020)
Positions of bridges follow the written chain, without caps; N, C: chain ends. Residues, ends and D or L forms follow the SMILES beside them.

Key:
[1] = Ex vivo metabolism of LAT8881 in human whole blood; type: in vitro ADME
Procedure: (§1) Human or rat blood was collected into K2EDTA tubes and approximately 2.94 mL of blood was transferred into a polypropylene tube and kept in a water bath at 37° C. […] At the indicated times, approximately 300 μL of the spiked blood sample was transferred into a vial containing 30 μL of OX Protease Inhibitor Cocktail (Sigma Aldrich; Product No. P2714), mixed well and centrifuged at 4° C. The plasma fraction was then collected, transferred into polypropylene tubes and stored at -80° C. […] […] NO:11)) and vortex-mixed with 200 μL of acetonitrile for 5 min at 1500 rpm. The resulting mixture was then centrifuged at 14000 rpm for 5 min and the supernatant was evaporated at 37° C. under a stream of nitrogen to dryness. The residue was reconstituted in 150 μL of reconstitution solution and approximately 150 μL of the reconstituted sample was transferred to a 96 well-plate for injection into the LC-MS system. […] The mobile phase was (a) 5% acetonitrile/water with 0.1% formic acid, and (b) 95% acetonitrile/water with 0.1% formic acid. Eluted peaks were analysed using mass spectrometry. For the analysis of LAT9998 (SEQ ID NO:11), a 5 μL aliquot of each plasma sample was injected into a Shimadzu Nexera UPLC system equipped with a Phenomenex Aeris Peptide XB-C18, 3.6 μm, 150×2.1 mm. The mobile phase was (a) 5% acetonitrile/water with 0.1% formic acid, and (b) 95% acetonitrile/water with 0.1% formic acid. Eluted peaks were analysed using mass spectrometry. Samples were analysed using an AB Sciex QTrap 5500 mass spectrometer with ESI in positive mode. MRM analyses were conducted with Ion Spray (IS) at 5500 V and the Curtain Gas (CUR) was set at 20. Multiple MRM transitions were monitored to ensure the chromatographic peaks observed are from the nominal compound. Results are reported as analyte peak area ratios (normalized versus internal standard peak area).

[2] = Ex vivo metabolism of LAT8881 in rat whole blood; type: in vitro ADME
Procedure: as §1

[3] = test system: rats with CFA-induced inflammation; assay: Paw withdrawal threshold in CFA-induced inflammatory (nociceptive) pain; type: in vivo, rat; conditions: 3 mg/kg body weight; at 1 and 2 hours after administration
Procedure: Briefly, rats were anaesthetized with 3% isoflurane mixed with 97% oxygen. The left paw was injected with 0.05 ml CFA emulsion (F5881, Sigma-Aldrich) in saline (CFA:saline=1:1, vol./vol.). After CFA injection, the animals were returned to their home cages. Regular observations were be carried out to monitor the conditions of the animals after injection.

[4] = test system: nerve cells in spinal cord slices; assay: Spontaneous electrical activity in spinal cord slices from Chung model rats; type: cell-based, rat; conditions: 1 μM added to spinal cord slice
Procedure: Within 2 minutes of addition of 1 μM LATc9991F to the spinal cord slice, this electrical activity was suppressed; * indicates time that LATc9991F was added to the spinal cord slice preparation.
This study was undertaken to assess the effect of LATc9991F (SEQ ID NO:10) on spontaneous electrical activity on spinal cord slices from Chung model rats with confirmed neuropathic pain. LATc9991F is a non-human variant of LAT9991F that is derived from the feline, canine and equine variants of human growth hormone, as described in WO 2013/082667.
Briefly, spinal cord slices were prepared from Chung model rats with confirmed neuropathic pain symptoms, and spontaneous electrical activity was measured as in Example 1. […] Within 2 minutes of addition of LATc9991F to the slice, this electrical activity was suppressed by LATc9991F.

Lamina I or II neurones = assay: Whole-cell patch clamp on spinal cord slices with intact dorsal root afferents: evoked post-synaptic currents; type: cell-based, rat; conditions: comparator; data not shown
Procedure: An in vitro spinal cord slice with intact dorsal root afferents combined with single-cell whole-cell patch clamp electrophysiological recording techniques was used to assess the electrophysiological properties of the peptide having the amino acid sequence of SEQ ID NO:2.
Spinal cord slices were prepared from chronic nerve constriction models of neuropathic pain (Chung models) and tested against the peptide of SEQ ID NO:2.
The spinal nerve ligation model (Chung model) was first reported by Kim and Chung (1992; Pain, 50(3):355-63) and involves a single tight ligation of the L5 spinal nerve. […] This model has been used as a “gold standard’ model for assessing the efficacy of novel compounds targeting neuropathic pain.
Adult male Sprague-Dawley rats, 8-9 weeks old, weighing 220-250 g at the time of surgery, were purchased from Charles River UK Ltd. The animals were housed in groups of 4 in an air-conditioned room on a 12-hour light/dark cycle. […] The baseline paw withdrawal threshold (PWT) was examined using a series of graduated von Frey hairs for 3 consecutive days before surgery and re-assessed on the 6th to 8th day after surgery and on the 12th to 14th day after surgery before drug dosing Each rat was anaesthetized with 5% isoflurane mixed with oxygen (2 L per min) followed by an intramuscular (i.m.) injection of ketamine 90 mg/kg plus xylazine 10 mg/kg. […]

Chung rats = assay: Paw withdrawal threshold in nerve constriction model of neuropathic pain (Chung model); type: in vivo, rat; conditions: for paw withdrawal threshold of ipsilateral paw: vs vehicle
Procedure: Briefly, adult male Sprague-Dawley rats, 8-9 weeks old, weighing 220-250 g at the time of surgery, were purchased from Charles River UK Ltd.
The animals were housed in groups of 4 in an air-conditioned room on a 12-hour light/dark cycle. Food and water were available ad libitum. They were allowed to acclimatise to the experimental environment for three days by leaving them on a raised metal mesh for at least 40 min. The baseline paw withdrawal threshold (PWT) was examined using a series of graduated von Frey hairs for 3 consecutive days before surgery and re-assessed on the 6th to 8th day after surgery and on the 12th to 14th day after surgery before drug dosing.
Each rat was anaesthetized with 5% isoflurane mixed with oxygen (2 L per min) followed by an intramuscular (i.m.) injection of ketamine 90 mg/kg plus xylazine 10 mg/kg. The back was shaved and sterilized with povidone-iodine. The animal was placed in a prone position and a para-medial incision was made on the skin covering the L4-6 level. The L5 spinal nerve was carefully isolated and tightly ligated with 6/0 silk suture. The wound was then closed in layers after a complete hemostasis. A single dose of antibiotics (Amoxipen, 15 mg/rat, i.p.) was routinely given for prevention of infection after surgery. The animals were placed in a temperature-controlled recovery chamber until fully awake before being returned to their home cages.
The vehicle (1% DMSO in PBS) and LAT8881 (AOD9604, GL449; provided by Lateral Pharma Pty Ltd) was administrated intramuscularly (i.m.) into the leg of the side contralateral to the site of injury. Dosing was carried out by a second experimenter. The rats with validated neuropathic pain state were randomly divided into 5 experimental groups: 1 ml/kg vehicle, 0.1, 0.5, 1 and 5 mg/kg LAT8881.
Each group had 8 animals. The animals were placed in individual Perspex boxes on a raised metal mesh for at least 40 minutes before the test. Starting from the filament of lowest force (about 1 g), each filament was applied perpendicularly to the centre of the ventral surface of the paw until slightly bent for 6 seconds. If the animal withdrew or lifted the paw upon stimulation, then a hair with force immediately lower than that tested was used. If no response was observed, then a hair with force immediately higher was tested. The lowest amount of force required to induce reliable responses (positive in 3 out of 5 trials) was recorded as the value of PWT.
The drug test was carried out on the 12th to 14th day after surgery. PWT were assessed before, 1, 2 and 4 hours following drug or vehicle administration. The animals were rested by being returned to their home cages (about 30-60 min) between two neighbouring testing time points. LAT8881 was administered by a single intramuscular injection (IM) in the ipsilateral limb at a dose of about 0.1 mg/kg body weight to about 5 mg/kg body weight.
LAT9991 was administered by a single intramuscular injection (IM) in the ipsilateral limb at a dose of about 0.1 mg/kg body weight to about 5 mg/kg body weight.
Gabapentin, as a positive control, obtained from Actavis, UK (Lot No. GJ29), was administered orally at 100 mg/2 ml/kg in normal saline. Dosing was carried out by a second experimenter.
Briefly, LAT9991F was administered orally at a dose of about 1 mg/kg body weight to about 5 mg/kg body weight.
Briefly, LAT9991 was administered orally at a dose of about 1 mg/kg body weight, 2 mg/kg body weight and 5 mg/kg body weight.

CC(C)[C@@H]1NC(=O)[C@H](CO)NC(=O)[C@H](CCCNC(=N)N)NC(=O)[C@@H](N)CSSC[C@@H](C(=O)NCC(=O)N[C@@H](Cc2ccccc2)C(=O)O)NC(=O)[C@H](CO)NC(=O)CNC(=O)[C@H](CCC(=O)O)NC1=O [LAT9991F, CRSVEGSCGF] (H-CRSVEGSCGF-OH; disulfide 1-8; N-terminus and C-terminus assumed)
half-life ([1]; human, blood): > 1 h
half-life ([2]; rat, blood): > 1 h

CN1CC[C@]23c4c5ccc(O)c4O[C@H]2[C@@H](O)C=C[C@H]3[C@H]1C5 [morphine]
analgesic effect on nociceptive pain (paw withdrawal threshold) [3]: significant analgesic effect

CRRFVESSCA (listed as Canis lupus) [LATc9991F, non-human variant of LAT9991F derived from the feline, canine and equine variants of human growth hormone]
spontaneous electrical activity in nerve cells [4]: suppressed
time after addition within which electrical activity was suppressed [4]: ≤ 2 min

human growth hormone: human growth hormone, comparator in the spinal cord slice recording
effect on post-synaptic current (Lamina I or II neurones): no effect

CRSVEGSC (listed as Homo sapiens) [LAT9998, metabolite of LAT8881]
Detection of LAT9998 (peak area ratio) in all samples [1]: LAT9998 peaks were not detectable
Detection of LAT9998 (peak area ratio) in all samples [2]: LAT9998 peaks were not detectable

CRSVEGSCG (listed as Homo sapiens) [LAT9991]
analgesic effect compared with gabapentin at 100 mg/kg body weight orally (Chung rats; 5 mg/kg body weight PO): comparable
analgesic effect compared with gabapentin at 100 mg/kg body weight (Chung rats; 5 mg/kg body weight i.m.): comparable
effect on the contralateral paw responses (Chung rats; PO): No effect
time after administration within which effect on paw withdrawal threshold was observed (Chung rats; PO): ≤ 1 h
time for which effect on paw withdrawal threshold was maintained (Chung rats; PO): at least 4 hours
improvement in paw withdrawal threshold compared with LAT8881 (Chung rats; PO, vs Example 7): comparable
effect on the contralateral paw (Chung rats; i.m.): no effect
time after administration within which effect on paw withdrawal threshold was observed (Chung rats; i.m.): ≤ 1 h
time for which effect on paw withdrawal threshold was maintained (Chung rats; i.m.): at least 4 hours
improvement in paw withdrawal threshold compared with LAT8881 (Chung rats; i.m., vs Example 5): comparable
biological activity compared to the parent peptide LAT8881 (magnitude and duration of neuropathic analgesia) (Chung rats; nerve constriction model): equivalent or substantially equivalent
paw withdrawal threshold of ipsilateral paw (Chung rats; oral gavage 1, 2 and 5 mg/kg body weight): significant dose-dependent improvement
paw withdrawal threshold of ipsilateral paw (Chung rats; single i.m. injection, about 0.1 to 5 mg/kg body weight): significant dose-dependent improvement
